Among the data in BindingDB's records for doi:10.7270/Q2QF8R9S (Vanderbilt Screening Center For Gpcrs, Ion Channels and …, 2010) are EC50 values, retold here.

pEC50: −log10 of the molar value.

As usually defined, the pEC50 is the EC50 on a negative log10 scale, so that one unit is a factor of ten.

One experiment concerns the target T1, Muscarinic acetylcholine receptor M1 (Rattus norvegicus, UniProt P08482).
T1 sequence (P08482 whole entry): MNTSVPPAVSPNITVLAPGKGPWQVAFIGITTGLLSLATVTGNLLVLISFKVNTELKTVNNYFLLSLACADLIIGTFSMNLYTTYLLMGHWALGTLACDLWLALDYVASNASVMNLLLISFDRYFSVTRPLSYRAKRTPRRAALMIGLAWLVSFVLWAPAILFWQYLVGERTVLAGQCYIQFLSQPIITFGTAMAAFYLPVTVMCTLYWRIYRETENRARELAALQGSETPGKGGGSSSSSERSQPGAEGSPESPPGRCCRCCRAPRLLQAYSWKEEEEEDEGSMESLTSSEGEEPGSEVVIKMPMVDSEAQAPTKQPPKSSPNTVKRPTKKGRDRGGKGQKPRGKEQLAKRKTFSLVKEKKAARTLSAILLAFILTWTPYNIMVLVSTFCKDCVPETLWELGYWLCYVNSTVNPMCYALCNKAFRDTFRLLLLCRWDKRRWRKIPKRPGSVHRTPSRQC
As to the kind of experiment: rat M1 PAM analog potency, SAR follow-up, cell-based, calcium mobilization, CHO-K1 (AID 2651).
Details: not given
A general note: Calcium assays in cells follow changes in intracellular calcium, usually with a dye or a luminescent sensor.
For the compound `Cc1cc(NC(=O)CS(=O)(=O)c2cn(Cc3cccc(-c4cn[nH]c4)c3)c3ccccc23)no1`, the pEC50 is 5.66. Still for that read-out and setting: for `Cc1cc(NC(=O)CS(=O)(=O)c2cn(Cc3cccc(Cl)c3F)c3ccccc23)no1` the value was 5.29; for `Cc1cc(NC(=O)CS(=O)(=O)c2cn(Cc3cccc(-c4cc[nH]n4)c3F)c3ccccc23)no1`, 5.36. The same measure, in the same setting: for `Cc1cc(NC(=O)CS(=O)(=O)c2cn(Cc3ccccc3Cl)c3ccccc23)no1` [2-[1-[(2-chlorophenyl)methyl]indol-3-yl]sulfonyl-N-(5-methyl-1,2-oxazol-3-yl)acetamide] the value was 5.00.

Consider `Cc1cc(NC(=O)CS(=O)(=O)c2cn(Cc3cccc(Br)c3)c3cc(F)cc(F)c23)no1` [2-[1-[(3-bromophenyl)methyl]-4,6-bis(fluoranyl)indol-3-yl]sulfonyl-N-(5-methyl-1,2-oxazol-3-yl)ethanamide], for which the pEC50 is 5.27. Still for that read-out and setting: for `Cc1cc(NC(=O)CS(=O)(=O)c2cn(Cc3cccc(Br)c3)c3ccccc23)no1` [2-[[1-[(3-bromophenyl)methyl]-3-indolyl]sulfonyl]-N-(5-methyl-3-isoxazolyl)acetamide] the value was 5.42.

With `Cc1cc(NC(=O)CS(=O)(=O)c2cn(Cc3cccc(F)c3)c3ccccc23)no1` [2-[[1-[(3-fluorophenyl)methyl]-3-indolyl]sulfonyl]-N-(5-methyl-3-isoxazolyl)acetamide], the pEC50 was 5.28. Regarding `Cc1cc(NC(=O)CS(=O)(=O)c2cn(Cc3cc(Br)ccc3F)c3ccccc23)no1` [2-[[1-[(5-bromo-2-fluorophenyl)methyl]-3-indolyl]sulfonyl]-N-(5-methyl-3-isoxazolyl)acetamide], the pEC50 is 5.86. Same read-out and setting: to `Cc1cc(NC(=O)CS(=O)(=O)c2cn(Cc3cc(-c4cc[nH]n4)ccc3F)c3ccccc23)no1` [2-[[1-[[2-fluoro-5-(1H-pyrazol-5-yl)phenyl]methyl]-3-indolyl]sulfonyl]-N-(5-methyl-3-isoxazolyl)acetamide] belongs 5.51. Consider `Cc1cc(NC(=O)CS(=O)(=O)c2cn(Cc3cccc(Cl)c3)c3ccccc23)no1` [VU0366968-1], for which the pEC50 is 5.24. As to `COc1cccc(Cn2cc(S(=O)(=O)CC(=O)Nc3cc(C)on3)c3ccccc32)c1` [VU0366971-1], the negative-log EC50 (pEC50) was 5.18. Turning to `Cc1cc(NC(=O)CS(=O)(=O)c2cn(Cc3cccc(-c4ccn(C)n4)c3)c3ccccc23)no1` [VU0402606-1], the pEC50 is 5.49. With `Cc1cc(NC(=O)CS(=O)(=O)c2cn(Cc3ccc(F)nc3)c3ccccc23)no1` [VU0404018], the pEC50 was 5.00.

As to `Cc1cc(NC(=O)CS(=O)(=O)c2cn(Cc3cccc(-c4cn[nH]c4)c3)c3cc(F)cc(F)c23)no1` [VU0405645-1], the pEC50 is 5.73.

Staying with this experiment, now noted: inactive by the depositor's call.
Take `Cc1cc(NC(=O)CS(=O)(=O)c2cn(Cc3cccc(-c4ccc(Cl)nc4)c3)c3ccccc23)no1`: the negative logarithm of the EC50 (pEC50) was 4.52.
